In PubChem BioAssay (NCI):
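Results reflect a 48-hour exposure of cells in 96-well plates to compound at five concentrations. The concentration for 50% growth inhibition is given as GI50. TGI is the concentration that stops growth completely.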

Key:
Test in all cases: DTP human tumour cell line panel, 48 h
A498 renal = system: A498 renal
ACHN renal = system: ACHN renal
EKVX NSCLC = system: EKVX NSCLC
K-562 leukemia = system: K-562 leukemia
KM12 colon = system: KM12 colon
MDA-N = system: MDA-N
MOLT-4 leukemia = system: MOLT-4 leukemia
NCI/ADR-RES ovarian = system: NCI/ADR-RES ovarian
PC-3 prostate = system: PC-3 prostate
RXF 393 renal = system: RXF 393 renal
SK-OV-3 ovarian = system: SK-OV-3 ovarian

Compound | TGI (A498 renal) | TGI (ACHN renal) | TGI (EKVX NSCLC) | TGI (K-562 leukemia) | TGI (KM12 colon) | TGI (MDA-N) | TGI (MOLT-4 leukemia) | TGI (NCI/ADR-RES ovarian) | TGI (PC-3 prostate) | TGI (RXF 393 renal) | TGI (SK-OV-3 ovarian) | GI50 (ACHN renal)
CCCN1C(=O)CCC2=C1CCc1c2ccc(Cl)c1Cl | 33.2 µM | > 100 µM | > 100 µM | > 100 µM | > 100 µM | > 100 µM | > 100 µM | > 100 µM | > 100 µM | 50.5 µM | 69.1 µM | 
CC(=O)OCC1OC(n2c(N)c(C#N)c(-c3ccccc3)c(C#N)c2=S)C(OC(C)=O)C(OC(C)=O)C1OC(C)=O (centres undefined) | > 100 µM | > 100 µM | > 100 µM | > 100 µM | > 100 µM | > 100 µM | > 100 µM | > 100 µM | > 100 µM | > 70.5 µM | > 100 µM | 
O=C(Oc1ccccc1)c1cc2cc(CCl)ccc2oc1=O | 33.9 µM | 21.1 µM | 38.5 µM | > 100 µM | > 100 µM | > 100 µM | > 100 µM | > 100 µM | 29.2 µM | 27.9 µM | 83.2 µM | 
CC(C)CCC1(O)O[C@H]2C[C@H]3[C@@H]4CCC5CC(=O)C=C[C@]5(C)[C@H]4CC[C@]3(C)[C@H]2[C@@H]1C (some centres undefined) | 28.5 µM | 26.6 µM | 34.7 µM | 19.3 µM | 26.5 µM | 27 µM | 7.15 µM | 33.1 µM | 17.4 µM | 24.2 µM | 32.9 µM | 
O=C1OC(c2ccc(O)c(Cl)c2)(c2ccc(O)c(Cl)c2)c2ccc(Br)c3cccc1c23 (tested in a mixture with another compound) | 31.7 µM | 27.2 µM | 29.3 µM | 46.2 µM | 42.2 µM | 45.9 µM | 41.8 µM | 32.5 µM | 28.8 µM | 32.5 µM | 32.2 µM | 13.9 µM
COC(=O)C(CCC1C=CCC1)N=Cc1ccccc1 (centres undefined) | > 100 µM | > 100 µM | > 100 µM | > 100 µM | > 100 µM | > 100 µM | > 100 µM | > 100 µM | > 100 µM | > 100 µM | > 100 µM | 
CC(=O)Oc1ccc2c(c1)c1c(=O)oc(N(C)C)nc1n2Cc1ccccc1 | > 83 µM | > 100 µM | > 100 µM | > 100 µM | > 100 µM | > 100 µM | > 100 µM | > 100 µM | > 100 µM | > 100 µM | > 100 µM | 
CC(C)(C)c1ccc(CN2CCN(C(c3ccccc3)c3ccc(Cl)cc3)CC2)cc1 (centres undefined) | > 100 µM | > 100 µM | > 100 µM | > 100 µM | > 100 µM | > 100 µM | > 100 µM | > 100 µM | > 100 µM | 82.7 µM | > 100 µM | 
CC(C)OP(=O)(CN(C)/C(F)=N\C(F)(F)F)OC(C)C | > 100 µM | > 100 µM | > 100 µM | > 100 µM | > 100 µM | > 100 µM | > 100 µM | > 100 µM | > 100 µM | > 100 µM | > 100 µM | 
Cc1nc2c(o1)C(=O)c1ccccc1/C2=N/c1ccccn1 | 30.7 µM | 39.8 µM | 41.6 µM | > 100 µM | 42.2 µM | 32.6 µM | 43.2 µM | 56.9 µM | > 100 µM | > 100 µM | > 100 µM | 
C1COC(NC(C2CC2)C2CC2)=N1 | > 100 µM | > 100 µM | > 100 µM | > 100 µM | > 100 µM | > 100 µM | > 100 µM | > 100 µM | > 100 µM | > 100 µM | > 100 µM | 
NC1CC(=O)c2csc(Br)c21 (centres undefined) | > 57.9 µM | 32.2 µM | 33.1 µM | > 82.4 µM | > 57.9 µM | 28.4 µM | 46.8 µM | 44.4 µM | 28.4 µM | 36 µM | > 100 µM | 
Nc1nc(Cl)cc(NCC2(CO)CCC(Cc3ccccc3)C2)n1 (centres undefined) | > 65.8 µM | > 100 µM | > 100 µM | 64.8 µM | 49.8 µM | > 91.5 µM | 30.6 µM | > 100 µM | > 96.1 µM | > 80.5 µM | > 90.6 µM | 
O=P(O)(O)C(O)/C=C/c1ccccc1 (centres undefined) | > 100 µM | > 100 µM | > 100 µM | > 100 µM | > 100 µM | > 100 µM | > 100 µM | > 100 µM | > 100 µM | > 100 µM | > 100 µM | 
CCOP(=O)(/C=C\n1cnc2c(=O)n(C(C)=O)c(N)nc21)OCC | > 100 µM | > 100 µM | > 100 µM | > 100 µM | > 100 µM | > 100 µM | > 100 µM | > 100 µM | > 100 µM | > 100 µM | > 100 µM | 
OCCN(CCO)c1ccc2c(C(F)(F)F)cc(C(F)(F)F)nc2n1 | > 100 µM | > 100 µM | > 100 µM | > 100 µM | > 100 µM | > 100 µM | > 100 µM | > 100 µM | > 100 µM | > 100 µM | > 100 µM | 
CC(=O)C1=C(N=[N+]=[N-])c2cccc3cccc(c23)C1=O | 71 µM | 32.4 µM | 46.3 µM | 89.8 µM | 44.7 µM | 42.7 µM | 33.2 µM | 70.9 µM | 53.2 µM | 28 µM | 82.3 µM | 
N#Cc1c(-c2ccccc2)/c(=C\O)c(=O)n2c1nc1ccccc12 | > 100 µM | > 100 µM | > 100 µM | > 100 µM | > 100 µM | > 100 µM | > 100 µM | > 100 µM | > 100 µM | > 100 µM | > 100 µM | 
